Reference: ChEMBL document CHEMBL5331140, “Discovery of IACS-52825, a Potent and Selective DLK Inhibitor for Treatment of Chemotherapy-Induced Peripheral Neuropathy” (J Med Chem, 2023)
pIC50, pKd: −log10 of the molar value. Values after ≈ are worked out from the molar mass of the structure shown.

What was measured:
[1] = Metabolic stability in mouse hepatocytes assessed as intrinsic clearance at 2 uM measured for 120 mins by LC-MS analysis; assay type: ADME, cell-based, Hepatocyte; conditions: read-out: CLH
[2] = Volume of distribution at steady state in Beagle dog at 1 mg/kg, po or 0.3 mg/kg, iv measured for 24 hrs by LC-MS/MS analysis; assay type: ADME, organism-based, Canis lupus familiaris; conditions: in vivo
[3] = Metabolic stability in mouse liver microsomes assessed as intrinsic clearance at 1 uM in presence of NADPH regenerating system measured for 45 mins by LC-MS/MS analysis; assay type: ADME, Microsome; conditions: read-out: CLH
[4] = Oral bioavailability in Sprague-Dawley rat at 3 mg/kg measured for 24 hrs by LC-MS/MS analysis; assay type: ADME, organism-based; conditions: in vivo
[5] = Cmax in Sprague-Dawley rat at 3 mg/kg, po or 1 mg/kg, iv measured for 24 hrs by LC-MS/MS analysis; assay type: ADME, organism-based; set-up: time 24 hrs, dose 3 mg/kg, route po; conditions: in vivo
Mus musculus = experiment: Antiallodynic activity in po dosed C57BL/6 mouse model of cisplatin-induced mechanical allodynia assessed as increase in paw withdrawal threshold stimulated with cisplatin on day 1 to 5 and 10 to 15 followed by daily administration of compound starting from day 16 and measured for 43 days by von frey test; assay type: functional, organism-based; conditions: dose 3-30 mg/kg, time 28.0 day
[6] = Plasma clearance in C57BL/6 mouse at 0.3 mg/kg, iv administered via tail vein and measured for 24 hrs by LC-MS/MS analysis; assay type: ADME, organism-based
[7] = Binding affinity to full length human DLK (1 to 859 residues)/NFkappaB DNA binding domain (unknown origin) fusion protein transfected in HEK293 cells assessed as dissociation constant incubated for 1 hr by Kinomescan assay; assay type: cell-based
[8] = Plasma protein binding in monkey at 5 uM incubated for 5 hrs by rapid equilibrium dialysis method; assay type: ADME, cell-free, Macaca mulatta; conditions: rhesus monkey, read-out: PPB (converted)
[9] = Permeability in wild type MDCK cells across basolateral to apical side at 5 uM incubated for 90 mins by LC-MS/MS analysis; assay type: ADME, cell-based, Canis lupus familiaris; conditions: dog, read-out: permeability
Cytochrome P450 2C9 = Cytochrome P450 2C9 (Homo sapiens, UniProt P11712); experiment: Inhibition of CYP2C9 in human liver microsomes using diclofenac as substrate incubated for 10 mins in presence of NADPH by LC-MS/MS analysis; assay type: ADME, Microsome
[10] = AUClast in Sprague-Dawley rat at 3 mg/kg, po or 1 mg/kg, iv measured for 24 hrs by LC-MS/MS analysis; assay type: ADME, organism-based; set-up: time 24 hrs, dose 3 mg/kg, route po; conditions: in vivo
[11] = Volume of distribution at steady state in cynomolgus monkey at 1 mg/kg, po or 0.3 mg/kg, iv measured for 24 hrs by LC-MS/MS analysis; assay type: ADME, organism-based, Macaca fascicularis; conditions: in vivo
[12] = Half life in Beagle dog at 1 mg/kg, po or 0.3 mg/kg, iv measured for 24 hrs by LC-MS/MS analysis; assay type: ADME, organism-based, Canis lupus familiaris; conditions: in vivo
Cytochrome P450 3A4 = Cytochrome P450 3A4 (Homo sapiens, UniProt P08684); experiment: Inhibition of CYP3A4 in human liver microsomes using testosterone as substrate incubated for 5 mins in presence of NADPH by LC-MS/MS analysis; assay type: ADME, Microsome
[13] = Metabolic stability in dog liver microsomes assessed as intrinsic clearance at 1 uM in presence of NADPH regenerating system measured for 45 mins by LC-MS/MS analysis; assay type: ADME, Canis lupus familiaris, Microsome; conditions: read-out: CLH
[14] = Plasma protein binding in human at 5 uM incubated for 5 hrs by rapid equilibrium dialysis method; assay type: ADME, cell-free; conditions: read-out: PPB
[15] = Metabolic stability in human liver microsomes assessed as intrinsic clearance at 1 uM in presence of NADPH regenerating system measured for 45 mins by LC-MS/MS analysis; assay type: ADME, Microsome; conditions: read-out: CLH
[16] = AUClast in cynomolgus monkey at 1 mg/kg, po or 0.3 mg/kg, iv measured for 24 hrs by LC-MS/MS analysis; assay type: ADME, organism-based, Macaca fascicularis; set-up: dose 1 mg/kg, time 24 hrs, route po; conditions: in vivo
[17] = Oral bioavailability in C57BL/6 mouse at 10 mg/kg administered via oral gavage and measured for 24 hrs by LC-MS/MS analysis; assay type: ADME, organism-based; conditions: C57BL/6, mouse, in vivo
[18] = Thermodynamic aqueous solubility of compound in phosphate buffer at pH 7 incubated for 1 hr under shaking condition by LC-MS/MS analysis; assay type: physicochemical; conditions: read-out: Therm_solubility
[19] = Metabolic stability in rat hepatocytes assessed as intrinsic clearance at 2 uM measured for 120 mins by LC-MS analysis; assay type: ADME, cell-based, Hepatocyte; conditions: read-out: CLH
[20] = Half life in cynomolgus monkey at 1 mg/kg, po or 0.3 mg/kg, iv measured for 24 hrs by LC-MS/MS analysis; assay type: ADME, organism-based, Macaca fascicularis; conditions: in vivo
[21] = Volume of distribution at steady state in C57BL/6 mouse at 0.3 mg/kg, iv administered via tail vein and measured for 24 hrs by LC-MS/MS analysis; assay type: ADME, organism-based; conditions: in vivo, read-out: Vdss
[22] = Metabolic stability in dog hepatocytes assessed as intrinsic clearance at 2 uM measured for 120 mins by LC-MS analysis; assay type: ADME, cell-based, Canis lupus familiaris, Hepatocyte; conditions: read-out: CLH
[23] = Thermodynamic aqueous solubility of compound in FaSSGF at pH 1.6 incubated for 1 hr under shaking condition by LC-MS/MS analysis; assay type: physicochemical; conditions: read-out: Therm_solubility

Cytochrome P450 2C9, sequence (P11712 whole entry): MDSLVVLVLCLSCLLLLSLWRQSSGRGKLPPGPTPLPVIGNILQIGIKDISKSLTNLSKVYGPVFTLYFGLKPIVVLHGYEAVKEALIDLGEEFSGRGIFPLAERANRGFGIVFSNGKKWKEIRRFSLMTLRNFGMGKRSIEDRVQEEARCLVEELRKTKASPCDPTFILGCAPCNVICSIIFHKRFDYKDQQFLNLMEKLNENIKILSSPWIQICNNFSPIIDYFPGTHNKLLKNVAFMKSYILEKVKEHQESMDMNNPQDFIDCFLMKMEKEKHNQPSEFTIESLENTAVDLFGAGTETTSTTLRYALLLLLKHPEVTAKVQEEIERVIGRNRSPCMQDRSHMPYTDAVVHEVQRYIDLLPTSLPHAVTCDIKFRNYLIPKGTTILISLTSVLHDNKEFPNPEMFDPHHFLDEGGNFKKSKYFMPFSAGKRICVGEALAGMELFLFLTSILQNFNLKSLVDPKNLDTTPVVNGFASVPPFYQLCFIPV
Cytochrome P450 3A4, sequence (P08684 whole entry): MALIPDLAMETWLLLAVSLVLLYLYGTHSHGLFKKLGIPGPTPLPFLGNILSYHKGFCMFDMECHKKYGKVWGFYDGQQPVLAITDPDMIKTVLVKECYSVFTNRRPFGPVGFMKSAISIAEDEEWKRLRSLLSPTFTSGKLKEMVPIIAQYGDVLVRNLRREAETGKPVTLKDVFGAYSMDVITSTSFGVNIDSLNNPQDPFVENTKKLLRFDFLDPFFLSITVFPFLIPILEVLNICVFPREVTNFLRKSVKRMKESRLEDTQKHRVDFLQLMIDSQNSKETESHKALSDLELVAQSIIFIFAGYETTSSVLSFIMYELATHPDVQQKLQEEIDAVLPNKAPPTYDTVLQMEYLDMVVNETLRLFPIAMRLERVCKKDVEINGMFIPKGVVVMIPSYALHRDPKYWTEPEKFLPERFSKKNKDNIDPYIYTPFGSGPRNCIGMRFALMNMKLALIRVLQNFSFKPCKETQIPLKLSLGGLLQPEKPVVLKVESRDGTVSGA

CLint scaled at 2 µM [1]: 2.5 mL/min/kg
Vdss [2]: 3.5 L/kg
CLint scaled at 1 µM [3]: 14 mL/min/kg
bioavailability [4]: 95%
Cmax [5]: 1300 nM
clearance [6]: 4.3 mL/min/kg
fraction unbound at 5 h, 5 µM [8]: 0.139
Papp B→A at 1.5 h, 5 µM [9]: 31 ×10⁻⁶ cm/s
pIC50 (Cytochrome P450 2C9): < 5.00
AUC(0-t) at 24 h [10]: 16.8 µM·h
Vdss [11]: 5.3 L/kg
half-life [12]: 8.5 h
pIC50 (Cytochrome P450 3A4): < 5.00
CLint scaled at 1 µM [13]: 12 mL/min/kg
fraction unbound at 5 h, 5 µM [14]: 0.091
CLint scaled at 1 µM [15]: 3 mL/min/kg
AUC(0-t) at 24 h [16]: 4.7 µM·h
bioavailability [17]: > 100%
solubility thermodynamic at 1 h [18]: 0.033 mM (≈ 14.1 µg/mL)
CLint scaled at 2 µM [19]: 4.4 mL/min/kg
half-life [20]: 7.2 h
Vd [21]: 4.5 L/kg
CLint scaled at 2 µM [22]: 9.2 mL/min/kg
solubility thermodynamic at 1 h [23]: 20.6 mM (≈ 8790 µg/mL)
Compound: Nc1ncc(-c2cn(C34CC(F)(C3)C4)c([C@@H](O)C(F)(F)F)n2)cc1OC(F)(F)F
Activity (Mus musculus): Dose-Dependent Effect
pKd [7]: 8.89
